# Assays:
# [1] = system: primary cortical stem cell and progenitor cell derived neural networks; assay type: cell-based, rat
# [2] = system: passaged cortical stem and progenitor cell derived neural networks; assay type: cell-based, rat
Compound,mean spike rate (MSR) response of the network [1],mean spike rate (MSR) response of the network [2],"raw action potential spike activity, single channel 10 second trace [2]"
"NC(CCCP(=O)(O)O)C(=O)O (racemic) [APV, DL-2-amino-5-phosphonovaleric acid]",No additional decrease in network activity,decrease in MSR,incremental effects of APV on both spike rate and burst pattern
cadmium chloride,,responsive,
"N#Cc1cc2c(cc1[N+](=O)[O-])=NC(=O)C(=O)N=2 [CNQX, 6-cyano-7-nitroquinoxaline-2,3-dione]",decrease in MSR,further decrease in activity,near total blockade of action potentials

# — patent publication US7947626B2 (priority 2006, dated 2011)
